Laboratory results: patent US7928238B2, “1,2,3,4-tetrahydro-quinoline derivatives as CETP inhibitors” (Janssen Pharmaceutica NV, priority 2006, dated 2011)
Several values for one entry are separate records, joined by “and”; a condition that tells them apart may be missing. Equal entries are not always repeated. Where two headings read alike, the source gives them in different places.

Target: T1, CETP (Homo sapiens, UniProt P11597)
T1 construct: from tissue; host or cells: human plasma from normal volunteers
T1 sequence (P11597 18-493): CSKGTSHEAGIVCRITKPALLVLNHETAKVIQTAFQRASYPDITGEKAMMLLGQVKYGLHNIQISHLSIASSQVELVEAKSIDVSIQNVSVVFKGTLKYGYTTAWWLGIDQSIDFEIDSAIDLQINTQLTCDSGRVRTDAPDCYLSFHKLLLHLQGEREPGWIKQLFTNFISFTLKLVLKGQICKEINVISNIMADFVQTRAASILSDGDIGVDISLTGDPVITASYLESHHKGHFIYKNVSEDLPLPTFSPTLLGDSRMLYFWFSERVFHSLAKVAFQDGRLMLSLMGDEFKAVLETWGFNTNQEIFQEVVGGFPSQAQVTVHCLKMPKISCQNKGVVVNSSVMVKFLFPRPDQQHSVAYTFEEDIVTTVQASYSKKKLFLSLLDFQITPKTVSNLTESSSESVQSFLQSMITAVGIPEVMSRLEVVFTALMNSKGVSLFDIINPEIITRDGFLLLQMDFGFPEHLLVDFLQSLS
Assay: CETP in vitro assay (Amersham kit TRKQ7005; modified protocol in human plasma, [3H]CE-HDL transfer)
Format: biochemical
Conditions: for IC50: from plots of % control versus compound concentration
Procedure: The CETP inhibitory activity of the compounds was determined using a commercially available kit from Amersham Biosciences (Catalog #TRKQ7005).
Briefly, 80 μl of human plasma (obtained from normal volunteers), approximately 25 μg/ml (20 μl) of [^3H]CE-HDL (Amersham Biosciences from kit TRKQ7005) and 1 μl of compound dissolved in DMSO was incubated for at least 4 hrs at 37° C. and non-specific transfer was determined by incubating a corresponding plate at 4° C. (blank). After the incubation period, 10 μl of a solution of 1% Dextralip 50/0.5M MgCl2, pH 7.4 was added, vortexed and incubated at room temperature for 10 min. The plate was then centrifuged for 30 min at 10° C. at 300 rpm in a Sorvall RT6000B centrifuge. Fifty microliters of the supernatant was transferred to a Picoplate (Packard) containing 100 μl of Microscint 40 (Perkin Elmer) and mixed for 30 min using a plate mixer. The radioactivity was counted using a TopCount (Perkin Elmer) and the % control was determined in the samples using the following formula: % transfer relative to vehicle controls (% control)=[cpm blank−cpm test]/cpm blank/cpm control]×100. IC50s were calculated from plots of the % control versus compound concentration.

[1] = 1 μM compound, read-out: % Inhibition @ 1 μM

Compound	% Inhibition @ 1 μM (1 μM compound)	IC50	inhibition at 1 µM [1] [%]	inhibition at 1 µM (read-out: % Inhibition @ 1 μM, 1 μM compound) [%]
OC(CN1c2cccc(-c3cccc(OC(F)(F)F)c3)c2CCC1c1ccccc1)C(F)(F)F (stereo not shown) [Compound 20, 1,1,1-Trifluoro-3-[2-phenyl-5-(3-trifluoromethoxy-phenyl)-3,4-dihydro-2H-quinolin-1-yl]-propan-2-ol]	6%	–	–	–
COc1cccc(-c2cccc3c2CCC(c2cccc(OC(F)(F)C(F)F)c2)N3CC(O)C(F)(F)F)c1 (stereo not shown) [Compound 72, 1,1,1-Trifluoro-3-{5-(3-methoxy-phenyl)-2-[3-(1,1,2,2-tetrafluoro-ethoxy)-phenyl]-3,4-dihydro-2H-quinolin-1-yl}-propan-2-ol]	75% and 62%	160 nM and 93 nM	–	–
OC(CF)CN1c2cccc(-c3cccc(OC(F)(F)F)c3)c2CCC1c1cccc(OC(F)(F)F)c1 (stereo not shown) [Compound 50, 1-[2,5-Bis-(3-trifluoromethoxy-phenyl)-3,4-dihydro-2H-quinolin-1-yl]-3-fluoro-propan-2-ol]	13%	–	–	–
C[C@H](O)CN1c2cccc(-c3cccc(OC(F)(F)F)c3)c2CC[C@@H]1c1cccc(OC(F)(F)C(F)F)c1 [Compound 61]	–	–	0	–
CC(C)C(O)CN1c2cccc(-c3cccc(OC(F)(F)F)c3)c2CCC1c1cccc(OC(F)(F)F)c1 (stereo not shown) [Compound 45, 1-[2,5-Bis-(3-trifluoromethoxy-phenyl)-3,4-dihydro-2H-quinolin-1-yl]-3-methyl-butan-2-ol]	74% and 84%	326 nM	–	–
OC(CN1c2cccc(-c3cccc(OC(F)(F)F)c3)c2CCC1c1cccc(F)c1)C(F)(F)F (stereo not shown) [Compound 24, 1,1,1-Trifluoro-3-[2-(3-fluoro-phenyl)-5-(3-trifluoromethoxy-phenyl)-3,4-dihydro-2H-quinolin-1-yl]-propan-2-ol]	4%	–	–	–
OC(CN1c2cccc(-c3ccc(OC(F)(F)F)cc3)c2CCC1c1cccc(OC(F)(F)C(F)F)c1)C(F)(F)F (stereo not shown) [Compound 7, 1,1,1-Trifluoro-3-[2-[3-(1,1,2,2-tetrafluoro-ethoxy)-phenyl]-5-(4-trifluoromethoxy-phenyl)-3,4-dihydro-2H-quinolin-1-yl]-propan-2-ol]	61, 61%	–	–	–
OC(CN1c2cccc(-c3cccc(OC(F)(F)F)c3)c2CCC1c1cccc(Cl)c1)C(F)(F)F (stereo not shown) [Compound 29, 3-[2-(3-Chloro-phenyl)-5-(3-trifluoromethoxy-phenyl)-3,4-dihydro-2H-quinolin-1-yl]-1,1,1-trifluoro-propan-2-ol]	39%	290 nM	–	–
COc1cccc(-c2cccc3c2CC[C@H](c2cccc(OC(F)(F)C(F)F)c2)N3C[C@H](O)C(F)(F)F)c1 [Compound 83]	98%	140 nM and 160 nM	100	–
OC(CN1c2cccc(-c3cccc(F)c3)c2CCC1c1cccc(OC(F)(F)F)c1)C(F)(F)F (stereo not shown) [Compound 58, 1,1,1-Trifluoro-3-[5-(3-fluoro-phenyl)-2-(3-trifluoromethoxy-phenyl)-3,4-dihydro-2H-quinolin-1-yl]-propan-2-ol]	40%	–	–	–
OC(CN1c2cccc(-c3ccc(C(F)(F)F)cc3)c2CCC1c1cccc(OC(F)(F)C(F)F)c1)C(F)(F)F (stereo not shown) [Compound 3, 1,1,1-Trifluoro-3-[2-[3-(1,1,2,2-tetrafluoro-ethoxy)-phenyl]-5-(4-trifluoromethyl-phenyl)-3,4-dihydro-2H-quinolin-1-yl]-propan-2-ol]	85%	500 nM	–	–
OC(CN1c2cccc(-c3cccnc3)c2CCC1c1cccc(OC(F)(F)C(F)F)c1)C(F)(F)F (stereo not shown) [Compound 76, 1,1,1-Trifluoro-3-{5-pyridin-3-yl-2-[3-(1,1,2,2-tetrafluoro-ethoxy)-phenyl]-3,4-dihydro-2H-quinolin-1-yl}-propan-2-ol]	38%	–	57	–
Oc1cccc(-c2cccc3c2CCC(c2cccc(OC(F)(F)C(F)F)c2)N3CC(O)C(F)(F)F)c1 (stereo not shown) [Compound 43, 3-[2-[3-(1,1,2,2-Tetrafluoro-ethoxy)-phenyl]-1-(3,3,3-trifluoro-2-hydroxy-propyl)-1,2,3,4-tetrahydro-quinolin-5-yl]-phenol]	23%	–	–	–
Cc1cc(-c2cccc3c2CCC(c2cccc(OC(F)(F)C(F)F)c2)N3CC(O)C(F)(F)F)ccc1Cl (stereo not shown) [Compound 5, 3-{5-(4-Chloro-3-methyl-phenyl)-2-[3-(1,1,2,2-tetrafluoro-ethoxy)-phenyl]-3,4-dihydro-2H-quinolin-1-yl}-1,1,1-trifluoro-propan-2-ol]	96%	260 nM and 381 nM	–	–
C[C@@H](O)CN1c2cccc(-c3cccc(F)c3)c2CC[C@@H]1c1cccc(OC(F)(F)F)c1 [Compound 55]	34%	110 nM	39	–
OC(CN1c2cccc(Oc3cccc(Cl)c3Cl)c2CCC1c1cccc(OC(F)(F)C(F)F)c1)C(F)(F)F (stereo not shown) [Compound 86, 3-{5-(2,3-Dichloro-phenoxy)-2-[3-(1,1,2,2-tetrafluoro-ethoxy)-phenyl]-3,4-dihydro-2H-quinolin-1-yl}-1,1,1-trifluoro-propan-2-ol]	–	–	67	–
Cc1cc(-c2cccc3c2CCC(c2cccc(OC(F)(F)C(F)F)c2)N3CC(O)C(F)(F)F)ccc1Cl (stereo not shown) [Compound 6, 3-{5-(4-Chloro-3-methyl-phenyl)-2-[3-(1,1,2,2-tetrafluoro-ethoxy)-phenyl]-3,4-dihydro-2H-quinolin-1-yl}-1,1,1-trifluoro-propan-2-ol]	42%	–	–	–
OC(CN1c2cccc(-c3ccsc3)c2CCC1c1cccc(OC(F)(F)C(F)F)c1)C(F)(F)F (stereo not shown) [Compound 65, 1,1,1-Trifluoro-3-{2-[3-(1,1,2,2-tetrafluoro-ethoxy)-phenyl]-5-thiophen-3-yl-3,4-dihydro-2H-quinolin-1-yl}-propan-2-ol]	16%	–	–	–
COC[C@@H](O)CN1c2cccc(-c3cccc(OC(F)(F)F)c3)c2CC[C@@H]1c1cccc(OC(F)(F)F)c1 [Compound 51]	–	–	13	–
CC(C)c1cccc(-c2cccc3c2CCC(c2cccc(OC(F)(F)C(F)F)c2)N3CC(O)C(F)(F)F)c1 (stereo not shown) [Compound 67, 1,1,1-Trifluoro-3-{5-(3-isopropyl-phenyl)-2-[3-(1,1,2,2-tetrafluoro-ethoxy)-phenyl]-3,4-dihydro-2H-quinolin-1-yl}-propan-2-ol]	29%	–	–	–
COC[C@@H](O)CN1c2cccc(-c3cccc(OC(F)(F)F)c3)c2CC[C@H]1c1cccc(OC(F)(F)F)c1 [Compound 52]	–	–	0	–
OC(CN1c2cccc(-c3cccc(OC(F)(F)F)c3)c2CCC1c1ccccc1OC(F)(F)C(F)F)C(F)(F)F (stereo not shown) [Compound 90, 1,1,1-Trifluoro-3-[2-[2-(1,1,2,2-tetrafluoro-ethoxy)-phenyl]-5-(3-trifluoromethoxy-phenyl)-3,4-dihydro-2H-quinolin-1-yl]-propan-2-ol]	0%	–	–	–
COc1cccc(-c2cccc3c2CC[C@@H](c2cccc(OC(F)(F)F)c2)N3C[C@@H](C)O)c1 [Compound 60]	–	–	5	–
CCc1cc(Oc2cccc3c2CCC(c2cccc(OC(F)(F)C(F)F)c2)N3CC(O)C(F)(F)F)ccc1Cl (stereo not shown) [Compound 84, 3-{5-(4-Chloro-3-ethyl-phenoxy)-2-[3-(1,1,2,2-tetrafluro-ethoxy)-phenyl]-3,4-dihydro-2H-quinolin-1-yl}-1,1,1-trifluoro-propan-2-ol]	62%	600 nM	–	–
CC(C)Oc1cccc(-c2cccc3c2CCC(c2cccc(OC(F)(F)C(F)F)c2)N3CC(O)C(F)(F)F)c1 (stereo not shown) [Compound 69, 1,1,1-Trifluoro-3-{5-(3-isopropoxy-phenyl)-2-[3-(1,1,2,2-tetrafluoro-ethoxy)-phenyl]-3,4-dihydro-2H-quinolin-1-yl}-propan-2-ol]	18%	–	–	–
OC(CN1c2cccc(-c3cccc(Cl)c3)c2CCC1c1cccc(OC(F)(F)C(F)F)c1)C(F)(F)F (stereo not shown) [Compound 15, 3-{5-(3-Chloro-phenyl)-2-[3-(1,1,2,2-tetrafluoro-ethoxy)-phenyl]-3,4-dihydro-2H-quinolin-1-yl}-1,1,1-trifluoro-propan-2-ol]	66%	68 nM and 59 nM	–	68
C[C@@H](O)CN1c2cccc(-c3cccc(Cl)c3)c2CC[C@@H]1c1cccc(OC(F)(F)F)c1 [Compound 40]	32%	150 nM	37	–
OC(CN1c2cccc(-c3cccc(OC(F)(F)F)c3)c2CCC1c1cccs1)C(F)(F)F (stereo not shown) [Compound 33, 1,1,1-Trifluoro-3-[2-thiophen-2-yl-5-(3-trifluoromethoxy-phenyl)-3,4-dihydro-2H-quinolin-1-yl]-propan-2-ol]	28%	–	–	–
